We go through 14 molecules from US20210053957A1, “HERBICIDAL COMPOUNDS” (SYNGENTA PARTICIPATIONS AG, priority 2018, published 2021).

Holding throughout (assay): Post-emergence efficacy, glasshouse spray test
Common to all, as to type: in vivo

Experiment [1] has as its system Digitaria sanguinalis (DIGSA). As to conditions: Application Rate 500 g/Ha, evaluated after 13 days; for pest or weed control at 500 g/ha: Digitaria sanguinalis, post-emergence, 312 h, read-out: Control of weed species after post-emergence application, DIGSA (100=total damage to plant; 0=no damage to plant). The procedure: (§1) Seeds of a variety of test species were sown in standard soil in pots. After cultivation for 14 days (post-emergence) under controlled conditions in a glasshouse (at 24/16° C. day/night; 14 hours light; 65% humidity), the plants were sprayed with an aqueous spray solution derived from the dissolution of the technical active ingredient formula (I) in a small amount of acetone and a special solvent and emulsifier mixture referred to as IF50 (11.12% Emulsogen EL360 TM+44.44% N-methyl pyrrolidone+44.44% Dowanol DPM glycolether), to create a 50 g/l solution which was then diluted to required concentration using 0.25% or 1% Empicol ESC70 (Sodium lauryl ether sulphate)+1% ammonium sulphate as diluent. The test plants were then grown in a glasshouse under controlled conditions (at 24/16° C., day/night; 14 hours light; 65% humidity) and watered twice daily. After 13 days the test was evaluated (100=total damage to plant; 0=no damage to plant).
(§2) Ipomoea hederacea (IPOHE), Euphorbia heterophylla (EPHHL), Chenopodium album (CHEAL), Amaranthus palmeri (AMAPA), Lolium perenne (LOLPE), Digitaria sanguinalis (DIGSA), Eleusine indica (ELEIN), Echinochloa crus-galli (ECHCG), Setaia fabei (SETFA)

The subject of experiment [2] is Eleusine indica (ELEIN). As to conditions: Application Rate 500 g/Ha, evaluated after 13 days; for pest or weed control at 500 g/ha: Eleusine indica, post-emergence, 312 h, read-out: Control of weed species after post-emergence application, ELEIN (100=total damage to plant; 0=no damage to plant). The procedure:
as §1, §2

Experiment [3] concerns Ipomoea hederacea (IPOHE). As to conditions: Application Rate 500 g/Ha, evaluated after 13 days; for pest or weed control at 500 g/ha: Ipomoea hederacea, post-emergence, 312 h, read-out: Control of weed species after post-emergence application, IPOHE (100=total damage to plant; 0=no damage to plant). The procedure:
as §1, §2

Experiment [4] relates to Amaranthus palmeri (AMAPA). The settings on record: Application Rate 500 g/Ha, evaluated after 13 days; for pest or weed control at 500 g/ha: Amaranthus palmeri, post-emergence, 312 h, read-out: Control of weed species after post-emergence application, AMAPA (100=total damage to plant; 0=no damage to plant). The procedure: as §1, §2
In experiment [5] the test system is Chenopodium album (CHEAL). The settings on record: Application Rate 500 g/Ha, evaluated after 13 days; for pest or weed control at 500 g/ha: Chenopodium album, post-emergence, 312 h, read-out: Control of weed species after post-emergence application, CHEAL (100=total damage to plant; 0=no damage to plant). The procedure: as §1, §2
Experiment [6] deals with Setaia fabei (SETFA). The settings on record: Application Rate 500 g/Ha, evaluated after 13 days; for pest or weed control at 500 g/ha: Setaria faberi, post-emergence, 312 h, read-out: Control of weed species after post-emergence application, SETFA (100=total damage to plant; 0=no damage to plant). The procedure:
as §1, §2

The subject of experiment [7] is Lolium perenne (LOLPE). As to conditions: Application Rate 500 g/Ha, evaluated after 13 days; for pest or weed control at 500 g/ha: Lolium perenne, post-emergence, 312 h, read-out: Control of weed species after post-emergence application, LOLPE (100=total damage to plant; 0=no damage to plant). The procedure:
as §1, §2

Experiment [8] deals with Echinochloa crus-galli (ECHCG). As to conditions: Application Rate 500 g/Ha, evaluated after 13 days; for pest or weed control at 500 g/ha: Echinochloa crus-galli, post-emergence, 312 h, read-out: Control of weed species after post-emergence application, ECHCG (100=total damage to plant; 0=no damage to plant). The procedure: as §1, §2

Structures are written as SMILES.

For the molecule `CC(C)c1csc(-c2cc[n+](CCC(=O)O)nc2)n1.O=C([O-])C(F)(F)F` [Compound A24], the “Control of weed species after post-emergence application, DIGSA (100=total damage to plant; 0=no damage to plant)” value in experiment [1] was 10. Further, in experiment [2], the “Control of weed species after post-emergence application, ELEIN (100=total damage to plant; 0=no damage to plant)” value is 20. For the same molecule, in experiment [3], the “Control of weed species after post-emergence application, IPOHE (100=total damage to plant; 0=no damage to plant)” value is on record as 10. In addition, the “Control of weed species after post-emergence application, AMAPA (100=total damage to plant; 0=no damage to plant)” value in experiment [4] was found to be 0. In experiment [5], the “Control of weed species after post-emergence application, CHEAL (100=total damage to plant; 0=no damage to plant)” value is 0. The “Control of weed species after post-emergence application, SETFA (100=total damage to plant; 0=no damage to plant)” value in experiment [6] was 20. The “Control of weed species after post-emergence application, LOLPE (100=total damage to plant; 0=no damage to plant)” value in experiment [7] was found to be 10. Further, the “Control of weed species after post-emergence application, ECHCG (100=total damage to plant; 0=no damage to plant)” value in experiment [8] came out at 30.

Consider `COc1csc(-c2cc[n+](CCS(=O)(=O)[O-])nc2)n1` [Compound A26], for which the pest or weed control at 500 g/ha in experiment [1] was determined as 30%; in experiment [2], 40%; in experiment [3] it was 40%; in experiment [4], 20%; in experiment [5], 40%; in experiment [6], 40%. Moreover, the pest or weed control at 500 g/ha in experiment [7] came out at 30%; in experiment [8], 20%.

With `Cn1nnc(-c2cc[n+](CCC(=O)O)nc2)n1` [Compound A28], the pest or weed control at 500 g/ha was 70% in experiment [1]; 100% in experiment [2]; 30% in experiment [3]; 100% in experiment [4]; 90% in experiment [5]; 100% in experiment [6]. In addition, the pest or weed control at 500 g/ha in experiment [7] worked out at 70%; in experiment [8], 100%.

On to `O=C(O)CC[n+]1ccc(-c2cccs2)cn1` [Compound A41], for which the pest or weed control at 500 g/ha in experiment [1] was 0%; in experiment [2], 0%; in experiment [3], 10%; in experiment [4], 0%; in experiment [5] it was 60%; in experiment [6] it was 0%. Further, the pest or weed control at 500 g/ha in experiment [7] and in experiment [8] was 0% each time.

Regarding `O=S(=O)([O-])CC[n+]1ccc(-c2ncc(Cl)s2)cn1` [Compound A44], the pest or weed control at 500 g/ha turned out to be 50% in experiment [1]; 50% in experiment [2]; 60% in experiment [3]; 100% in experiment [4]; 60% in experiment [6]; 30% in experiment [7]. The pest or weed control at 500 g/ha in experiment [8] was 30%.

Take `O=C(O)CC[n+]1ccc(-c2nc(Cl)cs2)cn1` [Compound A46]: the pest or weed control at 500 g/ha in experiment [1] worked out at 60%; in experiment [2] it was 60%; in experiment [3], 50%; in experiment [5], 70%; in experiment [6], 60%; in experiment [7] it was 40%. Moreover, the pest or weed control at 500 g/ha in experiment [8] was determined as 80%.

For `O=C(O)CC[n+]1ccc(-c2ccco2)cn1` [Compound A52], the pest or weed control at 500 g/ha worked out at 30% in experiment [1]; 10% in experiment [2]; 10% in experiment [3]; 50% in experiment [4]; 10% in experiment [6]; 0% in experiment [7]. The pest or weed control at 500 g/ha in experiment [8] amounted to 10%.

In the case of `O=S(=O)([O-])CC[n+]1ccc(-c2ccco2)cn1` [Compound A53], the pest or weed control at 500 g/ha in experiment [1] came to 90%; in experiment [2], 60%; in experiment [3], 50%; in experiment [4] it was 60%; in experiment [6], 40%; in experiment [7] it was 20%. For the same molecule, the pest or weed control at 500 g/ha in experiment [8] turned out to be 30%.

With `Cc1nsc(-c2cc[n+](CCS(=O)(=O)[O-])nc2)c1C` [Compound A54, 2-[4-(3,4-dimethylisothiazol-5-yl)pyridazin-1-ium-1-yl]ethanesulfonate], the pest or weed control at 500 g/ha was determined as 90% in experiment [1]; 80% in experiment [2]; 10% in experiment [3]; 80% in experiment [4]; 50% in experiment [5]; 70% in experiment [6]. Also, the values for the pest or weed control at 500 g/ha in experiment [7] and in experiment [8] were 60% and 70%, respectively.

Turning to `Cc1coc(-c2cc[n+](CCC(=O)O)nc2)n1` [Compound A55], the pest or weed control at 500 g/ha in experiment [1] turned out to be 100%; in experiment [2], 100%; in experiment [3], 20%; in experiment [4] it was 100%; in experiment [5], 80%; in experiment [6], 100%. In addition, the pest or weed control at 500 g/ha in experiment [7] turned out to be 70%; in experiment [8] it was 100%.

Consider `Cc1nsc(-c2cc[n+](CCC(=O)O)nc2)c1C` [Compound A58], for which the pest or weed control at 500 g/ha was determined as 90% in experiment [1]; 40% in experiment [2]; 20% in experiment [3]; 80% in experiment [4]; 50% in experiment [5]; 90% in experiment [6]. Moreover, the pest or weed control at 500 g/ha in experiment [7] is 30%; in experiment [8] it was 70%.

With `COC(=O)C[n+]1ccc(-c2ncco2)cn1` [Compound A66], the pest or weed control at 500 g/ha in experiment [1] amounted to 60%; in experiment [2], 90%; in experiment [3] it was 10%; in experiment [4], 50%; in experiment [5] it was 60%; in experiment [6] it was 70%. Besides, the pest or weed control at 500 g/ha in experiment [7] was determined as 20%; in experiment [8] it was 70%.

On to `COC(=O)CCC[n+]1ccc(-c2ncco2)cn1` [Compound A69], for which the pest or weed control at 500 g/ha in experiment [1] came to 90%; in experiment [2], 90%; in experiment [3], 40%; in experiment [4] it was 90%; in experiment [5], 90%; in experiment [6], 90%. Moreover, the results for the pest or weed control at 500 g/ha in experiment [7] and in experiment [8] were 30% and 80%, respectively.

Regarding `OCCC[n+]1ccc(-c2ncco2)cn1` [Compound A70], the pest or weed control at 500 g/ha in experiment [1] amounted to 80%; in experiment [2], 40%; in experiment [3] it was 30%; in experiment [4] it was 40%; in experiment [5], 40%; in experiment [6], 40%. The pest or weed control at 500 g/ha in experiment [7] is 20%; in experiment [8] it was 40%.
